Laboratory results published in patent US20250051300A1, “GRAM-NEGATIVE SPECIFIC ANTIBIOTICS SPARING EFFECT ON GUT MICROBIOME” (THE BOARD OF TRUSTEES OF THE UNIVERSITY OF ILLINOIS, priority 2021, published 2025).
In brackets after ≈: the same amount, converted by molar mass. Read-outs that look alike come from different tables or passages of the source.

Experiments:
[1] = tested on: Faecalibacterium prausnitzii; test: MIC, gut commensal bacteria, micro-dilution broth; settings: Faecalibacterium prausnitzii, ATCC27768
Bacteroides vulgatus = test: MIC, gut commensal bacteria, micro-dilution broth; settings: Phocaeicola vulgatus
Bacteroides fragilis = test: MIC, gut commensal bacteria, micro-dilution broth; settings: Bacteroides fragilis, ATCC25285
Enterococcus faecalis = test: MIC, micro-dilution broth method (CLSI); format: cell-based; settings: Enterococcus faecalis KLE 2341, BHI-ych; read-out: MIC
Proteus mirabilis = test: MIC, gut commensal bacteria, micro-dilution broth; settings: Proteus mirabilis, ATCC35659
[2] = tested on: Stenotrophomonas maltophilia; test: MIC, gut commensal bacteria, micro-dilution broth; settings: Stenotrophomonas maltophilia, ATCC13637
Bifidobacterium longum = test: MIC, gut commensal bacteria, micro-dilution broth; settings: Bifidobacterium longum, ATCCBAA999
Morganella morganii = test: MIC, gut commensal bacteria, micro-dilution broth; settings: ATCC25839
[3] = tested on: Streptococcus parasanguinis; test: MIC, gut commensal bacteria, micro-dilution broth; settings: Streptococcus parasanguinis
gut microbiome = test: Impact on murine fecal microbiome (16S rRNA sequencing); settings: oral gavage twice a day for three days; feces at days 0, 7, 10, 31
Blautia producta = test: MIC, gut commensal bacteria, micro-dilution broth; settings: Blautia producta, ATCC27340
[4] = tested on: Bacteroides cellulosilyticus; test: MIC, gut commensal bacteria, micro-dilution broth; settings: Bacteroides cellulosilyticus
Lactobacillus reuteri = test: MIC, gut commensal bacteria, micro-dilution broth; settings: Limosilactobacillus reuteri, ATCC23272
Streptococcus salivarius = test: MIC, gut commensal bacteria, micro-dilution broth; settings: Streptococcus salivarius
Escherichia coli = test: MIC, micro-dilution broth method (CLSI); format: cell-based
Klebsiella pneumoniae = test: MIC, micro-dilution broth method (CLSI); format: cell-based
Enterobacter cloacae = test: MIC, micro-dilution broth method (CLSI); format: cell-based

## CC1(C)S[C@@H]2[C@H](NC(=O)[C@H](N)c3ccc(O)cc3)C(=O)N2[C@H]1C(=O)O [Amoxicillin]
[1]
  MIC: 64 µg/mL (≈ 175 µM)
Bacteroides vulgatus
  MIC: 2 µg/mL (≈ 5.47 µM)
Bacteroides fragilis
  MIC: 128 µg/mL (≈ 350 µM)
Enterococcus faecalis
  MIC: 0.25 µg/mL (≈ 0.684 µM)
Proteus mirabilis
  MIC: 0.008 µg/mL (≈ 0.0219 µM)
[2]
  MIC: > 128 µg/mL
Bifidobacterium longum
  MIC: 1 µg/mL (≈ 2.74 µM)
Morganella morganii
  MIC: 32 µg/mL (≈ 87.6 µM)
[3]
  MIC: 64 µg/mL (≈ 175 µM)
Gut microbiome
  effect on gut microbiome taxonomic composition: increases in members of Bacteroidia
Blautia producta
  MIC: 1 µg/mL (≈ 2.74 µM)
[4]
  MIC: > 128 µg/mL
Lactobacillus reuteri
  MIC: 1 µg/mL (≈ 2.74 µM)
Streptococcus salivarius
  MIC: 0.125 µg/mL (≈ 0.342 µM)

## CCC[C@@H]1C[C@@H](C(=O)N[C@@H]([C@H]2O[C@H](SC)[C@H](O)[C@@H](O)[C@H]2O)[C@H](C)Cl)N(C)C1 [Clindamycin]
[1]
  MIC: 0.25 µg/mL (≈ 0.588 µM)
Bacteroides vulgatus
  MIC: 16 µg/mL (≈ 37.6 µM)
Bacteroides fragilis
  MIC: 4 µg/mL (≈ 9.41 µM)
Enterococcus faecalis
  MIC: 1 µg/mL (≈ 2.35 µM)
Proteus mirabilis
  MIC: 0.125 µg/mL (≈ 0.294 µM)
[2]
  MIC: 0.5 µg/mL (≈ 1.18 µM)
Bifidobacterium longum
  MIC: 0.5 µg/mL (≈ 1.18 µM)
Morganella morganii
  MIC: > 128 µg/mL
[3]
  MIC: 0.06 µg/mL (≈ 0.141 µM)
Gut microbiome
  effect on gut microbiome taxonomic composition: large decreases in the members of Bacilli and Bacteroidia
Blautia producta
  MIC: 1 µg/mL (≈ 2.35 µM)
[4]
  MIC: > 128 µg/mL
Lactobacillus reuteri
  MIC: 0.25 µg/mL (≈ 0.588 µM)
Streptococcus salivarius
  MIC: 2 µg/mL (≈ 4.71 µM)

## Cc1cc(-c2nc(C(C)(C)C)[nH]c2-c2ccc3c(c2)OCCO3)ccn1 [Compound 1, 4-(2-(tert-butyl)-5-(2,3-dihydrobenzo[b][1,4]dioxin-6-yl)-1H-imidazol-4-yl)-2-methylpyridine]
Escherichia coli; Escherichia coli, ATCC25922, E. coli ATCC 25922, read-out: MIC
  MIC: 8 µg/mL (≈ 22.9 µM)
Escherichia coli; Escherichia coli, E. coli AR-0549, read-out: MIC
  MIC: 16 µg/mL (≈ 45.8 µM)
Escherichia coli; Escherichia coli, E. coli ΔrfaC JW3596 (permeability mutant)
  MIC: 0.25 µg/mL (≈ 0.715 µM)
Escherichia coli; Escherichia coli, E. coli ΔtolC JW5503 (efflux-deficient)
  MIC: 0.03 µg/mL (≈ 0.0859 µM)
Klebsiella pneumoniae; Klebsiella pneumoniae, ATCC27736, K. pneumoniae ATCC 27736, read-out: MIC
  MIC: 16 µg/mL (≈ 45.8 µM)
Klebsiella pneumoniae; Klebsiella pneumoniae, ATCCBAA1705, K. pneumoniae ATCC BAA-1705, read-out: MIC
  MIC: > 128 µg/mL
Klebsiella pneumoniae; Klebsiella pneumoniae, K. pneumoniae AR-0040, read-out: MIC
  MIC: 32 µg/mL (≈ 91.6 µM)
Enterobacter cloacae; Enterobacter cloacae, ATCC29893, E. cloacae ATCC 29893, read-out: MIC
  MIC: > 128 µg/mL
Enterobacter cloacae; Enterobacter cloacae, ATCCBAA2468, E. cloacae ATCC BAA-2468, read-out: MIC
  MIC: 32 µg/mL (≈ 91.6 µM)
Enterobacter cloacae; Enterobacter cloacae, E. cloacae AR-0163, read-out: MIC
  MIC: 64 µg/mL (≈ 183 µM)

## Colistin
Escherichia coli; E. coli AR0048
  MIC: 0.5 µg/mL
Escherichia coli; E. coli AR0055
  MIC: 1 µg/mL
Escherichia coli; E. coli AR0058
  MIC: 0.5 µg/mL
Escherichia coli; E. coli AR0061
  MIC: 0.5 µg/mL
Escherichia coli; E. coli AR0067
  MIC: 1 µg/mL
Escherichia coli; E. coli AR0069
  MIC: 0.5 µg/mL
Escherichia coli; E. coli AR0077
  MIC: 0.5 µg/mL
Escherichia coli; E. coli AR0081
  MIC: 0.5 µg/mL
Escherichia coli; E. coli AR0084
  MIC: 0.5 µg/mL
Escherichia coli; E. coli AR0085
  MIC: 0.5 µg/mL
Escherichia coli; E. coli AR0086
  MIC: 0.5 µg/mL
Escherichia coli; E. coli AR0089
  MIC: 0.5 µg/mL
Escherichia coli; E. coli AR0104
  MIC: 0.5 µg/mL
Escherichia coli; E. coli AR0114
  MIC: 0.25 µg/mL
Escherichia coli; E. coli AR0118
  MIC: 0.5 µg/mL
Escherichia coli; E. coli AR0119
  MIC: 0.5 µg/mL
Escherichia coli; E. coli AR0128
  MIC: 0.5 µg/mL
Escherichia coli; E. coli AR0137
  MIC: 1 µg/mL
Escherichia coli; E. coli AR0149
  MIC: 0.5 µg/mL
Escherichia coli; E. coli AR0150
  MIC: 0.5 µg/mL
Escherichia coli; E. coli AR0151
  MIC: 0.5 µg/mL
Escherichia coli; E. coli AR0162
  MIC: 0.5 µg/mL
Escherichia coli; E. coli AR0346
  MIC: 4 µg/mL
Escherichia coli; E. coli AR0348
  MIC: 0.25 µg/mL
Escherichia coli; E. coli AR0350
  MIC: 4 µg/mL
Escherichia coli; E. coli AR0493
  MIC: 8 µg/mL
Escherichia coli; E. coli AR0494
  MIC: 8 µg/mL
Escherichia coli; E. coli AR0495
  MIC: 4 µg/mL
Escherichia coli; E. coli AR0541
  MIC: 0.5 µg/mL
Escherichia coli; E. coli AR0543
  MIC: 0.5 µg/mL
Escherichia coli; E. coli AR0546
  MIC: 0.5 µg/mL
Escherichia coli; E. coli AR0551
  MIC: 0.5 µg/mL
Escherichia coli; E. coli AR0559
  MIC: 0.5 µg/mL
Escherichia coli; E. coli AR-0349 (colistin-resistant clinical isolate)
  MIC: 8 µg/mL
Escherichia coli; E. coli AR-0549
  MIC: 0.25 µg/mL
Escherichia coli; E. coli ATCC BAA-2340
  MIC: 0.25 µg/mL
Escherichia coli; E. coli ATCC BAA-2469
  MIC: 0.25 µg/mL
Escherichia coli; E. coli ATCC BAA-2471
  MIC: 0.25 µg/mL
Escherichia coli; E. coli ELZ 4004
  MIC: 0.25 µg/mL
Escherichia coli; E. coli ELZ 4017
  MIC: 0.25 µg/mL
Escherichia coli; E. coli ELZ 4042
  MIC: 0.25 µg/mL
Escherichia coli; E. coli ELZ 4072
  MIC: 0.25 µg/mL
Escherichia coli; E. coli ELZ 4081
  MIC: 0.25 µg/mL
Escherichia coli; E. coli ELZ 4139
  MIC: 0.25 µg/mL
Escherichia coli; E. coli ELZ 4239
  MIC: 0.25 µg/mL
Escherichia coli; E. coli ELZ 4277
  MIC: 0.25 µg/mL
Escherichia coli; E. coli ELZ 4346
  MIC: 0.25 µg/mL
Klebsiella pneumoniae; K. pneumoniae AR0034
  MIC: 0.5 µg/mL
Klebsiella pneumoniae; K. pneumoniae AR0039
  MIC: 0.5 µg/mL
Klebsiella pneumoniae; K. pneumoniae AR0041
  MIC: 0.5 µg/mL
Klebsiella pneumoniae; K. pneumoniae AR0042
  MIC: 0.5 µg/mL
Klebsiella pneumoniae; K. pneumoniae AR0043
  MIC: 0.5 µg/mL
Klebsiella pneumoniae; K. pneumoniae AR0044
  MIC: 0.5 µg/mL
Klebsiella pneumoniae; K. pneumoniae AR0046
  MIC: 4 µg/mL
Klebsiella pneumoniae; K. pneumoniae AR0047
  MIC: 4 µg/mL
Klebsiella pneumoniae; K. pneumoniae AR0049
  MIC: 0.5 µg/mL
Klebsiella pneumoniae; K. pneumoniae AR0066
  MIC: 1 µg/mL
Klebsiella pneumoniae; K. pneumoniae AR0068
  MIC: 0.5 µg/mL
Klebsiella pneumoniae; K. pneumoniae AR0075
  MIC: 0.5 µg/mL
Klebsiella pneumoniae; K. pneumoniae AR0076
  MIC: 0.5 µg/mL
Klebsiella pneumoniae; K. pneumoniae AR0079
  MIC: 0.5 µg/mL
Klebsiella pneumoniae; K. pneumoniae AR0080
  MIC: 0.5 µg/mL
Klebsiella pneumoniae; K. pneumoniae AR0087
  MIC: 4 µg/mL
Klebsiella pneumoniae; K. pneumoniae AR0098
  MIC: <0.25 µg/mL
Klebsiella pneumoniae; K. pneumoniae AR0106
  MIC: 4 µg/mL
Klebsiella pneumoniae; K. pneumoniae AR0107
  MIC: <0.25 µg/mL
Klebsiella pneumoniae; K. pneumoniae AR0109
  MIC: >8 µg/mL
Klebsiella pneumoniae; K. pneumoniae AR0112
  MIC: 0.5 µg/mL
Klebsiella pneumoniae; K. pneumoniae AR0113
  MIC: 0.5 µg/mL
Klebsiella pneumoniae; K. pneumoniae AR0115
  MIC: 0.5 µg/mL
Klebsiella pneumoniae; K. pneumoniae AR0117
  MIC: 1 µg/mL
Klebsiella pneumoniae; K. pneumoniae AR0120
  MIC: 0.5 µg/mL
Klebsiella pneumoniae; K. pneumoniae AR0125
  MIC: >4 µg/mL
Klebsiella pneumoniae; K. pneumoniae AR0126
  MIC: 0.5 µg/mL
Klebsiella pneumoniae; K. pneumoniae AR0129
  MIC: 0.5 µg/mL
Klebsiella pneumoniae; K. pneumoniae AR0135
  MIC: 0.5 µg/mL
Klebsiella pneumoniae; K. pneumoniae AR0138
  MIC: 2 µg/mL
Klebsiella pneumoniae; K. pneumoniae AR0139
  MIC: 2 µg/mL
Klebsiella pneumoniae; K. pneumoniae AR0140
  MIC: 0.5 µg/mL
Klebsiella pneumoniae; K. pneumoniae AR0141
  MIC: 1 µg/mL
Klebsiella pneumoniae; K. pneumoniae AR0142
  MIC: 0.5 µg/mL
Klebsiella pneumoniae; K. pneumoniae AR0143
  MIC: 1 µg/mL
Klebsiella pneumoniae; K. pneumoniae AR0145
  MIC: 0.5 µg/mL
Klebsiella pneumoniae; K. pneumoniae AR0146
  MIC: 0.5 µg/mL
Klebsiella pneumoniae; K. pneumoniae AR0148
  MIC: 1 µg/mL
Klebsiella pneumoniae; K. pneumoniae AR0152
  MIC: 0.5 µg/mL
Klebsiella pneumoniae; K. pneumoniae AR0153
  MIC: 0.5 µg/mL
Klebsiella pneumoniae; K. pneumoniae AR0158
  MIC: 0.5 µg/mL
Klebsiella pneumoniae; K. pneumoniae AR0160
  MIC: 1 µg/mL
Klebsiella pneumoniae; K. pneumoniae AR0347
  MIC: <0.25 µg/mL
Klebsiella pneumoniae; K. pneumoniae AR0542
  MIC: >8 µg/mL
Klebsiella pneumoniae; K. pneumoniae AR0548
  MIC: 0.5 µg/mL
Klebsiella pneumoniae; K. pneumoniae AR0550
  MIC: <0.25 µg/mL
Klebsiella pneumoniae; K. pneumoniae AR0552
  MIC: 0.5 µg/mL
Klebsiella pneumoniae; K. pneumoniae AR0553
  MIC: 0.5 µg/mL
Klebsiella pneumoniae; K. pneumoniae AR0554
  MIC: 0.5 µg/mL
Klebsiella pneumoniae; K. pneumoniae AR0555
  MIC: 0.5 µg/mL
Klebsiella pneumoniae; K. pneumoniae AR-0040
  MIC: 8 µg/mL
Enterobacter cloacae; E. cloacae AR0032
  MIC: 0.5 µg/mL
Enterobacter cloacae; E. cloacae AR0038
  MIC: 0.5 µg/mL
Enterobacter cloacae; E. cloacae AR0050
  MIC: 0.25 µg/mL
Enterobacter cloacae; E. cloacae AR0053
  MIC: 0.5 µg/mL
Enterobacter cloacae; E. cloacae AR0060
  MIC: 0.5 µg/mL
Enterobacter cloacae; E. cloacae AR0065
  MIC: 0.5 µg/mL
Enterobacter cloacae; E. cloacae AR0072
  MIC: 1 µg/mL
Enterobacter cloacae; E. cloacae AR0073
  MIC: 8 µg/mL
Enterobacter cloacae; E. cloacae AR0093
  MIC: 0.5 µg/mL
Enterobacter cloacae; E. cloacae AR0132
  MIC: 1 µg/mL
Enterobacter cloacae; E. cloacae AR0136
  MIC: 0.5 µg/mL
Enterobacter cloacae; E. cloacae AR0154
  MIC: 0.5 µg/mL
Enterobacter cloacae; E. cloacae AR0164
  MIC: 0.5 µg/mL
Enterobacter cloacae; E. cloacae AR0544
  MIC: 0.25 µg/mL
Enterobacter cloacae; E. cloacae AR0545
  MIC: 0.5 µg/mL
Enterobacter cloacae; E. cloacae AR-0163
  MIC: 16 µg/mL
Enterobacter cloacae; E. cloacae ATCC BAA-2341
  MIC: 0.5 µg/mL
Enterobacter cloacae; E. cloacae ATCC BAA-2468
  MIC: 0.25 µg/mL
